Measured values: patent US12178880B2, “Antibody-drug conjugate, and intermediate thereof, preparation method therefor, and application thereof” (SHANGHAI FUDAN-ZHANGJIANG BIO-PHARMACEUTICAL CO., LTD., priority 2020, dated 2024)
Where two headings read alike, the source gives them in different places. *1 amine or outer side, *2 acyl side, *3 side chain or, on linkers, in order; H or OH if unused. Where a SMILES comes first, the peptide text is derived from it. [ ]: non-standard residue; d: D form. The star is where a group is joined. X1 = CC[C@@]1(O)C(=O)OCc2c1cc1n(c2=O)Cc2c-1nc1cc(F)c(C)c3c1c2[C@H](N*)CC3; Hexanoyl(6-maleimido) = O=C1C=CC(=O)N1CCCCCC(=O)*; NHCH2OCH2CO = O=C(COCN[*:1])[*:2]

Columns and labels:
[1] = Coupling of linker-drug conjugates with other antibodies; format: physicochemical
tissue proteinase B = tissue proteinase B (Homo sapiens, UniProt P07858); experiment: In vitro enzyme digestion of linker-drug conjugates; format: biochemical; details: for speed of enzyme digestion (in words): pH 5.0 to 7.0
Method: The linker-drug conjugate (LE14 and GGFG-Dxd) was co-incubated with tissue proteinase B in three different pH (5.0, 6.0, 7.0) buffers. Samples were taken at different time points and entered into a high-performance liquid chromatography-mass spectrometry instrument. The external standard method (with DXD as the external standard) was used to determine the release percentage of the drug.

SK-BR-3 cell line = experiment: Killing activity of FDA026-LS13 before and after enzyme digestion; format: cell-based; details: 144 hours
Method: SK-BR-3 cell line was selected as the experimental cells. After the sample was incubated in tissue proteinase B system (100 mM sodium acetate-acetic acid buffer, 4 mM dithiothreitol, pH 5.0) at 37° C. for 4 hours, the obtained sample was diluted with culture medium to different concentrations. 8 concentrations (1.5 to 10-fold dilution) were set from 70 nM to 0.003 nM of SN-38 concentration. […] The IC50 value was calculated by reading the […] after chemical luminescent staining with CellTiter-Glo® Luminescent Cell Viability Assay.

Row | Compound | Percentage of drug release in the sample (tissue proteinase B; pH 5.0, 0 h) | Percentage of drug release in the sample (tissue proteinase B; pH 5.0, 1 h) | Percentage of drug release in the sample (tissue proteinase B; pH 5.0, 2 h) | Percentage of drug release in the sample (tissue proteinase B; pH 5.0, 3 h) | Percentage of drug release in the sample (tissue proteinase B; pH 5.0, 4 h) | Percentage of drug release in the sample (tissue proteinase B; pH 5.0, 5 h) | Percentage of drug release in the sample (tissue proteinase B; pH 5.0, 6 h) | speed of enzyme digestion (in words) (tissue proteinase B) | Percentage of drug release in the sample (tissue proteinase B; pH 6.0, 0 h) | Percentage of drug release in the sample (tissue proteinase B; pH 6.0, 1 h) | Percentage of drug release in the sample (tissue proteinase B; pH 6.0, 2 h) | Percentage of drug release in the sample (tissue proteinase B; pH 6.0, 3 h) | Percentage of drug release in the sample (tissue proteinase B; pH 6.0, 4 h) | Percentage of drug release in the sample (tissue proteinase B; pH 6.0, 5 h) | Percentage of drug release in the sample (tissue proteinase B; pH 6.0, 6 h) | Percentage of drug release in the sample (tissue proteinase B; pH 7.0, 0 h) | Percentage of drug release in the sample (tissue proteinase B; pH 7.0, 1 h) | Percentage of drug release in the sample (tissue proteinase B; pH 7.0, 2 h) | Percentage of drug release in the sample (tissue proteinase B; pH 7.0, 3 h) | Percentage of drug release in the sample (tissue proteinase B; pH 7.0, 4 h) | also measured
1 | CC[C@@]1(O)C(=O)OCc2c1cc1n(c2=O)Cc2c-1nc1cc(F)c(C)c3c1c2[C@H](NC(=O)COCNC(=O)CNC(=O)[C@H](Cc1ccccc1)NC(=O)CNC(=O)CNC(=O)CCCCCN1C(=O)C=CC1=O)CC3 [GGFG-Dxd, reference compound] ({Hexanoyl(6-maleimido)}-GGFG[NHCH2OCH2CO]-X1) | 21.62% | 25% | 25.85% | 27.76% | 29.72% | 31.69% | 34.17% | slow speed of enzyme digestion | 23.58% | 24.8% | 27.02% | 29.29% | 31.37% | 33.05% | 35.95% | 22.98% | 26.53% | 29.52% | 31.95% | 34.78% | aggregation ratio when coupled with other antibodies [1]: high aggregation ratio; precipitation when coupled with other antibodies [1]: produces precipitation; Percentage of drug release in the sample (tissue proteinase B; pH 7.0, 5 h): 36.17%; Percentage of drug release in the sample (tissue proteinase B; pH 7.0, 6 h): 38.25%
2 | CC[C@@]1(O)C(=O)OCc2c1cc1n(c2=O)Cc2c-1nc1cc(F)c(C)c3c1c2[C@@H](NC(=O)COCN(CCS(C)(=O)=O)C(=O)OCc1ccc(NC(=O)[C@H](C)NC(=O)[C@@H](NC(=O)CCCCCN2C(=O)C=CC2=O)C(C)C)cc1)CC3 [LE14] | 15% | 96.93% | 98.35% | 99.01% | 99.21% | 99.32% | 97.39% | quickly enzymatically digested | 14.28% | 95.98% | 96.8% | 98.45% | 98.81% | 98.9% | 99% | 17.59% | 98.05% | 99.08% | 99.33% | 99.2% | Percentage of drug release in the sample (tissue proteinase B; pH 7.0, 5 h): 100%; Percentage of drug release in the sample (tissue proteinase B; pH 7.0, 6 h): 99.39%
3 | CCc1c2c(nc3ccc(O)cc13)-c1cc3c(c(=O)n1C2)COC(=O)[C@]3(O)CC [SN-38, 7-ethyl-10-hydroxycamptothecin] |  |  |  |  |  |  |  |  |  |  |  |  |  |  |  |  |  |  |  |  | IC50 (SK-BR-3 cell line; read-out: IC50 (based on SN-38 equivalent) Before Enzyme Digestion): 7.13 nM; IC50 (SK-BR-3 cell line; after tissue proteinase B system, pH 5.0, 37° C., 4 hours, read-out: IC50 (based on SN-38 equivalent) After Enzyme Digestion): 7.32 nM
